From patent US20260027214A1, “PHARMACEUTICAL COMPOSITION FOR TREATING OR PREVENTING INFLAMMATION CAUSED BY ACANTHAMOEBA” (priority 2022, published 2026)

Experiments:
Acanthamoeba polyphaga [1] = assay: Adhesion test: Acanthamoeba adhered to polypropylene test pieces after 60 min immersion; type: cell-based
Procedure: (§1) An Acanthamoeba solution containing 1×10^5 Acanthamoeba per mL of solution was prepared by dispersing Acanthamoeba (Acanthamoeba polyphaga, obtained from American Type Culture Collection (ATCC), 30872™) in phosphate-buffered saline as solvent.
(§2) The polypropylene test pieces used in the adhesion test described below were polypropylene from Johoku Co., Ltd., product number: PP_A3, cut to dimensions of 15 mm length×15 mm width×0.25 mm thickness from original dimensions of 320 mm length×440 mm width×0.25 mm thickness for each experiment.
(§3) To verify the anti-adhesive properties and antiprotozoal activity of the lysozyme-chitosan complex (LYZOX (registered trademark)), adhesion tests and cell death tests were conducted.
(§4) Specifically, the above-mentioned Acanthamoeba solution was added to the above-mentioned lysozyme-chitosan complex (LYZOX (registered trademark)) solution to prepare mixed solutions containing 0.1 μg, 1 μg, 10 μg, 100 μg, and 1000 μg of lysozyme-chitosan complex per 1 mL of mixed solution. Separately, a control solution with 0 μg/mL concentration containing no lysozyme-chitosan complex was prepared. The same sterilized water used in preparing the lysozyme-chitosan complex was used as dilution liquid for concentration adjustment. All six solutions contained 1×10^5 Acanthamoeba per 1 mL of solution.
(§5) The above-mentioned polypropylene test pieces were immersed in the prepared mixed solutions and left standing; after 60 minutes of immersion, the test pieces were removed from the mixed solutions, washed with phosphate-buffered saline (PBS, obtained from FUJIFILM Wako Pure Chemical Corporation, product number: 166-23555), and dried. The surface of the obtained test pieces was observed under a biological microscope (obtained from Nikon, product number: ECLIPSE E-200), and Acanthamoeba adhered within a 5×5 mm observation area on the test piece surface were counted. Subsequently, trypan blue was applied to the observation area, staining dead Acanthamoeba, and the number of dead Acanthamoeba was counted.
(§6) Acanthamoeba were counted and the total number of adhered Acanthamoeba, number of dead Acanthamoeba, and Acanthamoeba mortality rate were measured in the same manner as Experimental Example 1, except that the mixture solution of lysozyme and chitosan (Table 2), lysozyme alone (Table 3), and chitosan alone (Table 4) described above were used instead of the lysozyme-chitosan complex (LYZOX (registered trademark)) solution of Experimental Example 1.

Acanthamoeba polyphaga [2] = assay: Cell death test: trypan blue staining of adhered Acanthamoeba; type: cell-based; conditions: for Acanthamoeba inhibition effects (antiprotozoal effects): in words, compared with complex at 100 μg/mL and 1000 μg/mL; for Acanthamoeba mortality rate: 60 min immersion, 1×10^5 Acanthamoeba/mL
Procedure: as §1, §2, §3, §4, §5, §6

Row | Substance | Total number of adhered Acanthamoeba (Acanthamoeba polyphaga [1]; 0.05 μg/mL, 1×10^5 Acanthamoeba/mL) [count/mm^2] | Total number of adhered Acanthamoeba (Acanthamoeba polyphaga [1]; 0.5 μg/mL, 1×10^5 Acanthamoeba/mL) [count/mm^2] | Total number of adhered Acanthamoeba (Acanthamoeba polyphaga [1]; 5 μg/mL, 1×10^5 Acanthamoeba/mL) [count/mm^2] | Total number of adhered Acanthamoeba (Acanthamoeba polyphaga [1]; 50 μg/mL, 1×10^5 Acanthamoeba/mL) [count/mm^2] | Total number of adhered Acanthamoeba (Acanthamoeba polyphaga [1]; 500 μg/mL, 1×10^5 Acanthamoeba/mL) [count/mm^2] | Acanthamoeba inhibition effects (antiprotozoal effects) (Acanthamoeba polyphaga [2]) | Total number of adhered Acanthamoeba (Acanthamoeba polyphaga [1]; 0.05 μg/mL, 1×10^5 Acanthamoeba/mL (Table 4)) [count/mm2] | Total number of adhered Acanthamoeba (Acanthamoeba polyphaga [1]; 0.5 μg/mL, 1×10^5 Acanthamoeba/mL (Table 4)) [count/mm2] | Total number of adhered Acanthamoeba (Acanthamoeba polyphaga [1]; 5 μg/mL, 1×10^5 Acanthamoeba/mL (Table 4)) [count/mm2] | Total number of adhered Acanthamoeba (Acanthamoeba polyphaga [1]; 50 μg/mL, 1×10^5 Acanthamoeba/mL (Table 4)) [count/mm2] | Total number of adhered Acanthamoeba (Acanthamoeba polyphaga [1]; 500 μg/mL, 1×10^5 Acanthamoeba/mL (Table 4)) [count/mm2] | Acanthamoeba mortality rate (Acanthamoeba polyphaga [2]; 0.05 μg/mL) [%] | Acanthamoeba mortality rate (Acanthamoeba polyphaga [2]; 0.5 μg/mL) [%] | Acanthamoeba mortality rate (Acanthamoeba polyphaga [2]; 5 μg/mL) [%] | Acanthamoeba mortality rate (Acanthamoeba polyphaga [2]; 50 μg/mL) [%] | Acanthamoeba mortality rate (Acanthamoeba polyphaga [2]; 500 μg/mL) [%]
1 | Lysozyme: egg white lysozyme with molecular weight of approximately 14300 (Biocon (Japan) Ltd.) | 119 | 94.2 | 87.2 | 67.8 | 42.1 | incomplete |  |  |  |  |  |  |  |  |  | 
2 | poly-β1→4-glucosamine [Chitosan] |  |  |  |  |  | incomplete | 108 | 89.2 | 82.1 | 65.3 | 49.7 | 3.5 | 3.8 | 3.9 | 7.9 | 37.4
